Results taken from the PolyMetriX glass transition set.

SMILES	glass transition temperature
*C(=O)Nc1ccc(NC(=O)c2ccc3[nH]c(-c4cc(-c5nc6cc(*)ccc6[nH]5)cc(N5C(=O)c6ccccc6C5=O)c4)nc3c2)cc1 (repeat unit)	295.00 °C
*C(=O)Nc1ccc(NC(=O)c2ccc3c(c2)C(=O)N(c2cccc(P(=O)(c4ccccc4)c4cccc(N5C(=O)c6ccc(*)cc6C5=O)c4)c2)C3=O)cc1 (repeat unit)	204.00 °C
*C(=O)Nc1ccc(Oc2ccc(-c3ccc(Oc4ccc(NC(=O)c5ccc6c(c5)C(=O)N(c5ccc(Oc7ccc(S(=O)(=O)c8ccc(Oc9ccc(N%10C(=O)c%11ccc(*)cc%11C%10=O)cc9)cc8)cc7)cc5)C6=O)cc4)cc3)cc2)cc1 (repeat unit)	267.00 °C
*C(=O)Nc1ccc(Oc2ccc(-c3ccc(Oc4ccc(NC(=O)c5ccc6c(c5)C(=O)N(c5ccc(Oc7cccc8c(Oc9ccc(N%10C(=O)c%11ccc(*)cc%11C%10=O)cc9)cccc78)cc5)C6=O)cc4)cc3)cc2)cc1 (repeat unit)	310.00 °C
*C(=O)Nc1ccc(Oc2ccc(-c3ccc(Oc4ccc(NC(=O)c5ccc6c(c5)C(=O)N(c5ccc(Oc7ccccc7-c7ccccc7Oc7ccc(N8C(=O)c9ccc(*)cc9C8=O)cc7)cc5)C6=O)cc4)cc3)cc2)cc1 (repeat unit)	254.00 °C
*C(=O)Nc1ccc(Oc2ccc(C(c3ccc(Oc4ccc(NC(=O)c5ccc6c(c5)C(=O)N(c5ccc(Oc7ccc(C8(c9ccc(Oc%10ccc(N%11C(=O)c%12ccc(*)cc%12C%11=O)cc%10)cc9)CC9CC8C8CCCC98)cc7)cc5)C6=O)cc4)cc3)(C(F)(F)F)C(F)(F)F)cc2)cc1 (repeat unit)	254.00 °C
*C(=O)Nc1ccc(Oc2ccc(C3(c4ccc(Oc5ccc(NC(=O)c6ccc7c(c6)C(=O)N(c6ccc(Oc8ccc(C9(c%10ccc(Oc%11ccc(N%12C(=O)c%13ccc(*)cc%13C%12=O)cc%11)cc%10)NC(=O)c%10ccccc%109)cc8)cc6)C7=O)cc5)cc4)NC(=O)c4ccccc43)cc2)cc1 (repeat unit)	330.00 °C
*C(=O)Nc1ccc(S(=O)(=O)c2ccc(NC(=O)c3ccc4c(c3)C(=O)N(c3ccc(NC(=O)Nc5ccc(N6C(=O)c7ccc(*)cc7C6=O)cc5)cc3)C4=O)cc2)cc1 (repeat unit)	205.00 °C
*C(=O)Nc1ccc2c(c1)Cc1cc(NC(=O)c3ccc4c(c3)C(=O)N(c3ccc(NC(=O)Nc5ccc(N6C(=O)c7ccc(*)cc7C6=O)cc5)cc3)C4=O)ccc1-2 (repeat unit)	224.00 °C
*CCCCCOc1ccc(NC(=O)c2cccc(C(=O)Nc3ccc(O*)cc3)c2)cc1 (repeat unit)	155.00 °C
*CCOCCOc1ccc(NC(=O)c2cccc(C(=O)Nc3ccc(O*)cc3)c2)cc1 (repeat unit)	155.00 °C
*Cc1ccc2oc(=O)c(C(=O)Nc3ccc(Oc4ccc(C(c5ccc(Oc6ccc(NC(=O)c7cc8cc(*)ccc8oc7=O)cc6)cc5)(C(F)(F)F)C(F)(F)F)cc4)cc3)cc2c1 (repeat unit)	283.00 °C
*Nc1cc(NC(=O)Nc2ccc(NC(*)=O)cc2)cc(C(=O)Nc2ccc3c(c2)C(=O)c2ccccc2C3=O)c1 (repeat unit)	184.00 °C
*Nc1cc(NC(=O)Nc2ccc(NC(*)=O)cc2)cc(C(=O)Nc2cccc3c2C(=O)c2ccccc2C3=O)c1 (repeat unit)	190.00 °C
*Nc1ccc(NC(=O)c2ccc(NC(=O)c3ccc(P(=O)(c4ccccc4)c4ccc(C(*)=O)cc4)cc3)cc2)cc1 (repeat unit)	243.00 °C
*Nc1ccc(NC(=O)c2cccc(C(*)=O)c2)cc1 (repeat unit)	295.00 °C
*OP(=O)(Oc1ccc(NC(=O)Oc2ccc(-c3ccc(OC(=O)Nc4ccc(*)cc4)cc3)cc2)cc1)c1ccccc1 (repeat unit)	34.00 °C
*Oc1ccc(NC(=O)c2ccc(*)cc2)cc1 (repeat unit)	225.00 °C
*Oc1ccc(NC(=O)c2cccc(C(=O)Nc3ccc(OC4COC5C(*)COC45)cc3)c2)cc1 (repeat unit)	218.00 °C
*c1ccc(NC(=O)Nc2ccc(NC(=O)Nc3ccc(-c4nc(-c5ccc(-c6nc(-c7ccc([N+](=O)[O-])cc7)c(-c7ccc([N+](=O)[O-])cc7)[nH]6)cc5)[nH]c4*)cc3)cc2)cc1 (repeat unit)	272.00 °C
*c1ccc2c(c1)C(=O)N(c1cccc(C(=O)Nc3ccc(NC(=O)c4cccc(N5C(=O)c6ccc(C(*)(C(F)(F)F)C(F)(F)F)cc6C5=O)c4)cc3)c1)C2=O (repeat unit)	311.00 °C
*c1ccc2c(c1)C(=O)N(c1cccc(C(=O)Nc3ccc(Oc4ccc(-c5ccc(Oc6ccc(NC(=O)c7cccc(N8C(=O)c9ccc(C(*)(C(F)(F)F)C(F)(F)F)cc9C8=O)c7)cc6)cc5)cc4)cc3)c1)C2=O (repeat unit)	280.00 °C

Next, values leading:

glass transition temperature	SMILES
216.00 °C	*C(=O)Nc1ccc(NC(=O)c2ccc3c(c2)C(=O)N(c2ccc(NC(=O)Nc4ccc(N5C(=O)c6ccc(*)cc6C5=O)cc4)cc2)C3=O)cc1 (repeat unit)
307.00 °C	*C(=O)Nc1ccc(NC(=O)c2ccc3c(c2)C(=O)N(c2ccc(Oc4cccc5c(N6C(=O)c7ccc(*)cc7C6=O)cccc45)cc2)C3=O)cc1 (repeat unit)
320.00 °C	*C(=O)Nc1ccc(Oc2ccc(C3(c4ccc(Oc5ccc(NC(=O)c6ccc7c(c6)C(=O)N(c6cccc(N8C(=O)c9ccc(*)cc9C8=O)c6)C7=O)cc5)cc4)NC(=O)c4ccccc43)cc2)cc1 (repeat unit)
295.00 °C	*C(=O)Nc1ccc(Oc2ccc(N3C(=O)c4ccc(*)cc4C3=O)cc2)cc1 (repeat unit)
205.00 °C	*C(=O)Nc1ccc(Oc2ccc(NC(=O)c3ccc4c(c3)C(=O)N(c3ccc(NC(=O)Nc5ccc(N6C(=O)c7ccc(*)cc7C6=O)cc5)cc3)C4=O)cc2)cc1 (repeat unit)
257.50 °C	*Nc1ccc(NC(=O)c2cccc(C(=O)c3ccc(C(*)=O)cc3)c2)cc1 (repeat unit)
173.00 °C	*Oc1ccc(-c2ccc(Oc3ccc(C(=O)c4ccc(C(=O)c5ccc(*)cc5)cc4)cc3)cc2)cc1 (repeat unit)
220.00 °C	*Oc1ccc(NC(=C(C#N)C#N)c2ccc(-c3ccc(C(Nc4ccc(*)cc4)=C(C#N)C#N)cc3)cc2)cc1 (repeat unit)
232.00 °C	*Oc1ccc(NC(=O)c2cc(C(=O)Nc3ccc(Oc4ccc(C(c5ccc(*)cc5)(C(F)(F)F)C(F)(F)F)cc4)cc3)cc([N+](=O)[O-])c2)cc1 (repeat unit)
243.00 °C	*Oc1ccc(NC(=O)c2ccc(C(=O)Nc3ccc(Oc4ccc(C(c5ccc(*)cc5)(C(F)(F)F)C(F)(F)F)cc4)cc3)cc2)cc1 (repeat unit)
269.00 °C	*Oc1ccc(NC(=O)c2ccc(C(=O)Nc3ccc(Oc4ccc(C5(c6ccc(*)cc6)C6CC7CC(C6)CC5C7)cc4)cc3)c3ccccc23)cc1 (repeat unit)
264.00 °C	*Oc1ccc(NC(=O)c2ccc(C(=O)Nc3ccc(Oc4ccc(C5(c6ccc(*)cc6)C6CC7CC(C6)CC5C7)cc4)cc3)cc2)cc1 (repeat unit)
235.00 °C	*Oc1ccc(NC(=O)c2ccc([Si](c3ccccc3)(c3ccccc3)c3ccc(C(*)=O)cc3)cc2)cc1 (repeat unit)
273.00 °C	*Oc1ccc(NC(=O)c2cccc(C(=O)Nc3ccc(Oc4ccc(C5(c6ccc(*)cc6)C6CC7CC(C6)CC5C7)cc4)cc3)c2)cc1 (repeat unit)
163.00 °C	*Oc1ccc2ccc(Oc3ccc(C(=O)Nc4ccc(Oc5ccc(C(c6ccc(Oc7ccc(NC(=O)c8ccc(*)cc8)cc7)cc6)(C(F)(F)F)C(F)(F)F)cc5)cc4)cc3)cc2c1 (repeat unit)
114.00 °C	*Oc1cccc(NC(=O)c2cccc(C(=O)Nc3ccc(Oc4ccc(C(=O)c5ccc(*)cc5)cc4)cc3)c2)c1 (repeat unit)
287.00 °C	*c1ccc(C(=O)c2ccc(C(=O)c3ccc(Oc4ccc(-c5nn(*)c(=O)c6ccccc56)c(F)c4)cc3)cc2)cc1 (repeat unit)
292.00 °C	*c1ccc(NC(=O)Nc2ccc(NC(=O)Nc3ccc(-c4nc(-c5ccc([N+](=O)[O-])cc5)[nH]c4*)cc3)cc2)cc1 (repeat unit)
235.00 °C	*c1ccc(Oc2ccc(C(=O)c3ccc(C(=O)c4ccc(Oc5ccc(-c6cc(*)[nH]n6)cc5)cc4)cc3)cc2)cc1 (repeat unit)
262.00 °C	*c1ccc(Oc2ccc(C(=O)c3ccc(C(=O)c4ccc(Oc5ccc(-c6nc(-c7cccc(-c8nc(*)c(-c9ccccc9)[nH]8)c7)[nH]c6-c6ccccc6)cc5)cc4)cc3)cc2)cc1 (repeat unit)
248.00 °C	*c1ccc(Oc2ccc(C(=O)c3ccc(C(=O)c4ccc(Oc5ccc(-c6nc(-c7ccccc7)[nH]c6*)cc5)cc4)cc3)cc2)cc1 (repeat unit)
298.00 °C	*c1ccc(Oc2ccc(NC(=O)c3ccc4c(c3)C(=O)N(c3ccc(Sc5ccc(N6C(=O)c7ccc(C(=O)Nc8ccc(Oc9ccc(C%10(*)NC(=O)c%11ccccc%11%10)cc9)cc8)cc7C6=O)cc5)cc3)C4=O)cc2)cc1 (repeat unit)
282.00 °C	*c1ccc(Oc2ccc(NC(=O)c3cccc(C(=O)Nc4ccc(Oc5ccc(-n6c(=O)c7cc8c(=O)n(*)c(=O)c8cc7c6=O)cc5)cc4)c3)cc2)cc1 (repeat unit)
231.00 °C	*c1ccc(Oc2ccc(NC(=O)c3cccc(Oc4ccc5c(c4)C(=O)N(*)C5=O)c3)cc2)cc1 (repeat unit)
328.00 °C	*c1ccc2c(c1)C(=O)N(c1cccc(C(=O)Nc3ccc(NC(=O)c4ccc(NC(=O)c5cccc(N6C(=O)c7ccc(C(*)(C(F)(F)F)C(F)(F)F)cc7C6=O)c5)cc4)cc3)c1)C2=O (repeat unit)
328.00 °C	*c1cccc(C(=O)Nc2ccc(NC(=O)c3cccc(N4C(=O)c5ccc(-c6cccc7c6C(=O)N(*)C7=O)cc5C4=O)c3)cc2)c1 (repeat unit)
275.00 °C	*c1cccc(C(=O)Nc2ccc(Oc3ccc(-c4ccc(Oc5ccc(NC(=O)c6cccc(N7C(=O)c8ccc(-c9cccc%10c9C(=O)N(*)C%10=O)cc8C7=O)c6)cc5)cc4)cc3)cc2)c1 (repeat unit)
